In article PMC12155096 (International Journal of Molecular Sciences, 2025):

Experiments:
[1] = target: Photinus pyralis (firefly) luciferase (Photinus pyralis, UniProt P08659); assay: biochemical; assay type: biochemical
human CYP1A2 [2] = target: T1, human CYP1A2 (Homo sapiens, UniProt P05177); conditions: for CYP1A2 Efficacy (in parenthesis): human
T1 sequence (P05177 1-516): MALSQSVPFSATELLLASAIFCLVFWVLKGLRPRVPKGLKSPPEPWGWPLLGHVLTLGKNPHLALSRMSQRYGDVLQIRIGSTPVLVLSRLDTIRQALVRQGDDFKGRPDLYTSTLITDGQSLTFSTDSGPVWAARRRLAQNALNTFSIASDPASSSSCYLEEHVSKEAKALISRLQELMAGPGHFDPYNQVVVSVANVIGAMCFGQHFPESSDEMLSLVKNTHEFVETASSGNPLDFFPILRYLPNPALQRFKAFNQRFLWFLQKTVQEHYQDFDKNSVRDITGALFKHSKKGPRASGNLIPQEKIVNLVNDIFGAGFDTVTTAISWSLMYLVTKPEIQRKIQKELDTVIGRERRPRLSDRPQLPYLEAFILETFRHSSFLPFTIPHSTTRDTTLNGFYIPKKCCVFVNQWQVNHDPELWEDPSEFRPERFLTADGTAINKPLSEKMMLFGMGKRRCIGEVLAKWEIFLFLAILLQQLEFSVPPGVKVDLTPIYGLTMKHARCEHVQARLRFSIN

human CYP2C9 [3] = target: T2, human CYP2C9 (Homo sapiens, UniProt P11712); conditions: for CYP2C9 Efficacy (in parenthesis): human
T2 sequence (P11712 whole entry): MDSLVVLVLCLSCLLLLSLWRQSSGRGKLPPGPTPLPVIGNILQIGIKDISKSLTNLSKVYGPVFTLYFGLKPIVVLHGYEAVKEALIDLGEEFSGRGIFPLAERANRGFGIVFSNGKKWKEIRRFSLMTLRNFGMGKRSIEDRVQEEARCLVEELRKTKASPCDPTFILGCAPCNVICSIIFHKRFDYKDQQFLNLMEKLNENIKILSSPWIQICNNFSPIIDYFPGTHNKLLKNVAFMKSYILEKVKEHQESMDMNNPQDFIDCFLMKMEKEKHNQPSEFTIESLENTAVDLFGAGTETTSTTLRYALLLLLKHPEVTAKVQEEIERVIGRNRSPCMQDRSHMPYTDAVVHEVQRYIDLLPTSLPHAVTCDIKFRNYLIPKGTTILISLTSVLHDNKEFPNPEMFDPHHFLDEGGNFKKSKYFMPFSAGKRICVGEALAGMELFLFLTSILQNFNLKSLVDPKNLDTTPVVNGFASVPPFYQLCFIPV

human CYP2C19 [4] = target: T3, human CYP2C19 (Homo sapiens, UniProt P33261); conditions: for CYP2C19 Efficacy (in parenthesis): human
T3 sequence (P33261 whole entry): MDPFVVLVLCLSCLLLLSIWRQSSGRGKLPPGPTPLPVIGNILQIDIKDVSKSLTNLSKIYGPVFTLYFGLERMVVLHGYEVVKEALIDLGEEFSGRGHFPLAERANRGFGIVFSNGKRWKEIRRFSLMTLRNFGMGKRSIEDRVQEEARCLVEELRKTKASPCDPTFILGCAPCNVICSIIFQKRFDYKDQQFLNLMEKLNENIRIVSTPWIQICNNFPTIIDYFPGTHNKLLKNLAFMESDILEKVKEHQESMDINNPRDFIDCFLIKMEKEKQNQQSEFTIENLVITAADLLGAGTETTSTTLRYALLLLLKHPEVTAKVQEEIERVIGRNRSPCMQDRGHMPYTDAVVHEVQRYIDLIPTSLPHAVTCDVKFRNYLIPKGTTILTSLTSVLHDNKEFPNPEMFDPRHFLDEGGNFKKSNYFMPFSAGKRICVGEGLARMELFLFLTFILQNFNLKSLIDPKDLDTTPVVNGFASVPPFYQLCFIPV

human CYP2D6 = human CYP2D6 (Homo sapiens, UniProt P10635)
Sequence of human CYP2D6 (P10635 whole entry): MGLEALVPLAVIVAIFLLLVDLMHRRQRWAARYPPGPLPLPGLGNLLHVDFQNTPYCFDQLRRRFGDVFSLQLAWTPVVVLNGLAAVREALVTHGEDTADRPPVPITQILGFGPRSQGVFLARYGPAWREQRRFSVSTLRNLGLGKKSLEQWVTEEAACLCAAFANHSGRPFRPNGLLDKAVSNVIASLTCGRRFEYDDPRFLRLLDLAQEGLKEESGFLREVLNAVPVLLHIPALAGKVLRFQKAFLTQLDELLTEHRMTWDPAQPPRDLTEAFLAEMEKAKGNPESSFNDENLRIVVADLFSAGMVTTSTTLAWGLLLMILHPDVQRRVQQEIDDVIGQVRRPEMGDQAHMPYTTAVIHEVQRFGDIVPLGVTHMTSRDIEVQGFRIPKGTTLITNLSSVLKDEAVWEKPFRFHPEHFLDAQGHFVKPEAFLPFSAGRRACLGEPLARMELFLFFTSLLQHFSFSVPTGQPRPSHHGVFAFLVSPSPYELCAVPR

CYP3A4 [5] = target: T4, CYP3A4 (Homo sapiens, UniProt P08684)
T4 sequence (P08684 whole entry): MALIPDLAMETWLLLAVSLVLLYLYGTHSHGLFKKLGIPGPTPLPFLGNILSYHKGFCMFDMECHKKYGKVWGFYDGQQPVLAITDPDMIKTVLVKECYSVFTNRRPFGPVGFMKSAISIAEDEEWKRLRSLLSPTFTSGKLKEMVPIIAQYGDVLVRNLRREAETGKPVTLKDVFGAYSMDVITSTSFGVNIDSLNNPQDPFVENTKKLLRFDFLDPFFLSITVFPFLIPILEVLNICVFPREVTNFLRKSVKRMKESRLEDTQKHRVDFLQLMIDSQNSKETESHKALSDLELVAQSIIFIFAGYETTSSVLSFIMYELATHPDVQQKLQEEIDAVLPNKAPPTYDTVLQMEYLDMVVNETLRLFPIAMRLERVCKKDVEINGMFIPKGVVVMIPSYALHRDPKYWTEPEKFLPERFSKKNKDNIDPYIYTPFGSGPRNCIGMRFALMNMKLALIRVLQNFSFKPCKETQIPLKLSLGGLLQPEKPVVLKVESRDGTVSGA

human CYP1A2 [6] = target: T1, human CYP1A2; assay: biochemical; conditions: for AC50: CYP1A2 AC50 (half-maximal activity concentration)
human CYP2C9 [7] = target: T2, human CYP2C9; assay: biochemical; conditions: for AC50: CYP2C9 AC50 (half-maximal activity concentration)
human CYP2C19 [8] = target: T3, human CYP2C19; assay: biochemical; conditions: for IC50: CYP2C19 IC50 (half-maximal inhibitory concentration); for AC50: CYP2C19 AC50 (half-maximal activity concentration)
CYP3A4 [9] = target: T4, CYP3A4; assay: biochemical; conditions: for IC50: CYP3A4 IC50 (half-maximal inhibitory concentration); for AC50: CYP3A4 AC50 (half-maximal activity concentration)
[10] = CYP1A2 IC50 (half-maximal inhibitory concentration)
[11] = CYP2C9 IC50 (half-maximal inhibitory concentration)

Sequence of Photinus pyralis (firefly) luciferase (P08659 whole entry): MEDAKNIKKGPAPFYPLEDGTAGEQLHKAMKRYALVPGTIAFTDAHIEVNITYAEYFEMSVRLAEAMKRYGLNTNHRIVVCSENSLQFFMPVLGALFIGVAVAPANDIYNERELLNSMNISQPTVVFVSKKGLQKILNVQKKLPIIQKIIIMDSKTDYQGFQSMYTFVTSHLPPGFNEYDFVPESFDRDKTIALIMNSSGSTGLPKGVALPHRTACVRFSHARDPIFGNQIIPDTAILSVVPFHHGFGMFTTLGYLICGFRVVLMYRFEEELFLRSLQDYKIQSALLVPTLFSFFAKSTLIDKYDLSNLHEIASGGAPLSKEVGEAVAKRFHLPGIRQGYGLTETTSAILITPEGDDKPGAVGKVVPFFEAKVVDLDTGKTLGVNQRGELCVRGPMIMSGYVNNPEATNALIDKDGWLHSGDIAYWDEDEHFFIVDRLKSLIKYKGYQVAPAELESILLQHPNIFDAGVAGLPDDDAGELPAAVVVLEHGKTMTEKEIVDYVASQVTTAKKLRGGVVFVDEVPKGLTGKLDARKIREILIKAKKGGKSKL

| SMILES | IC50 [1] | CYP1A2 Efficacy (in parenthesis) (human CYP1A2 [2]) | CYP2C9 Efficacy (in parenthesis) (human CYP2C9 [3]) | CYP2C19 Efficacy (in parenthesis) (human CYP2C19 [4]) | CYP2D6 IC50 (half-maximal inhibitory concentration) (human CYP2D6) | CYP3A4 Efficacy (in parenthesis) (CYP3A4 [5]) | IC50 (human CYP1A2 [6]; [10]) | IC50 (human CYP2C9 [7]; [11]) | IC50 (human CYP2C19 [8]) | IC50 (CYP3A4 [9]) | AC50 (human CYP2C9 [7]) | AC50 (CYP3A4 [9]) | Luciferase IC50 (half-maximal inhibitory concentration) [1] | other results |
| --- | --- | --- | --- | --- | --- | --- | --- | --- | --- | --- | --- | --- | --- | --- |
| Oc1ccc2ccc3cccc4ccc1c2c34 [1-Hydroxypyrene] | 68.7 µM | 0.83 ± 0.11 (-98 ± 1) % | 35.57 ± 0 (-80 ± 9) % | 15.71 ± 4.38 (-129 ± 16) % | Inactive | 27.72 ± 10.43 (-84 ± 7) % | 830 nM | 35.6 µM | 15.7 µM | 27.7 µM |  |  |  |  |
| Brc1ccc(Oc2ccc(Br)cc2Br)c(Br)c1 [2,2'4,4'-Tetrabromodiphenyl ether] | 44 µM | 16.84 ± 7.26 (-69 ± 6) % |  | 0.55 ± 0.43 (-128 ± 5) % | Inactive | 13.01 ± 6.86 (68 ± 8) % | 16800 nM |  | 0.55 µM |  | 12.7 µM | 13 µM |  | CYP3A4 IC50 (half-maximal inhibitory concentration) (CYP3A4 [5]): 13.01 ± 6.86 (68 ± 8) µM; AC50 (human CYP1A2 [6]): 16.8 µM; AC50 (human CYP2C19 [8]): 550 nM |
| Brc1c2ccccc2cc2ccccc12 [9-Bromoanthracene] | 42.3 µM | 0.51 ± 0.11 (-99 ± 4) % | 34.62 ± 2.26 (-73 ± 9) % | 26.26 ± 8.46 (-125 ± 5) % | Inactive | 25.01 ± 9.91 (-59 ± 38) % | 510 nM | 34.6 µM | 26.3 µM | 25 µM |  |  |  |  |
| O=C1c2ccccc2Cc2ccccc21 [Anthrone] |  | 0.44 ± 0.07 (-99 ± 1) % | 12.58 ± 3.51 (-54 ± 8) % | 15.72 ± 5.91 (-83 ± 4) % | Inactive | 26.66 ± 4.8 (-63 ± 11) % | 440 nM | 12.6 µM | 15.7 µM | 26.7 µM |  |  | Inactive |  |
| CCOP(=S)(OCC)Oc1ccc(Cl)cc1Cl [Dichlofenthion] |  | 3.07 ± 0.42 (-101 ± 5) % | 3.56 ± 0 (-100 ± 3) % | 0.44 ± 0.11 (-121 ± 28) % | Inactive | 2.22 ± 0.62 (-82 ± 5) % | 3070 nM | 3.56 µM | 0.44 µM | 2.22 µM |  |  | Inactive |  |
| CC(C)(C(=O)c1cccnc1)c1cccnc1 [Metyrapone] |  |  |  |  | Inactive | 0.57 ± 0.16 (-62 ± 5) % |  |  |  | 0.57 µM |  |  | Inactive | CYP1A2 IC50 (half-maximal inhibitory concentration) (human CYP1A2 [2]): Inactive; CYP2C9 IC50 (half-maximal inhibitory concentration) (human CYP2C9 [3]): Inactive; CYP2C19 IC50 (half-maximal inhibitory concentration) (human CYP2C19 [4]): Inactive |
| Oc1ccc2[nH]cc(CCCCN3CC=C(c4ccccc4)CC3)c2c1 [Roxindole] |  |  |  |  |  |  |  |  |  |  | 21.2 µM | 1.91 µM |  | Luciferase IC50 [1]: Inactive; CYP2C19 IC50 (human CYP2C19 [4]): Inactive; CYP3A4 IC50 (CYP3A4 [5]): 1.91 ± 0.48 (802 ± 30) µM; AC50 (human CYP1A2 [6]): 22.4 µM; IC50 (human CYP1A2 [6]; CYP1A2 IC50): 22400 nM; IC50 (human CYP2C9 [7]; CYP2C9 IC50): 21.2 µM |
| Clc1ccc(C(c2ccccc2Cl)C(Cl)(Cl)Cl)cc1 (stereo not shown) [o,p'-DDT] |  |  | 10.87 ± 3.7 (-95 ± 6) % | 0.35 ± 0.15 (-129 ± 3) % | Inactive | 11.59 ± 3.23 (99 ± 19) % |  | 10.9 µM | 0.35 µM |  | 10.9 µM | 11.6 µM | Inactive | CYP1A2 IC50 (half-maximal inhibitory concentration) (human CYP1A2 [2]): Inactive; CYP3A4 IC50 (half-maximal inhibitory concentration) (CYP3A4 [5]): 11.59 ± 3.23 (99 ± 19) µM; AC50 (human CYP2C19 [8]): 350 nM |
